As usually defined, the IC50 is the concentration needed to halve the response being measured. As usually defined, the Kd is the free concentration of one partner at which half of the binding sites on the other are occupied at equilibrium, for simple one-to-one binding.

Results on one compound are retold here after patent US20260308158A1, “TARGETING RNAS ASSOCIATED WITH TAUOPATHIES WITH SMALL MOLECULES” (University of Florida Research Foundation, Incorporated, priority 2023, published 2026).

The subject of assay [1] is WT SRE RNA. Briefly: In vitro competitive Chem-CLIP (C-Chem-CLIP), WT SRE RNA. Conditions: 3 at 1.5 μM, read-out: IC50, competition of the binding of 3. How it is done:
In Vitro Chemical Cross-linking and Isolation by Pull Down (Chem-CLIP) and Competitive Chem-CLIP (C-Chem-CLIP). Growth medium [Dulbecco's modified eagle medium (DMEM; corning, 10-013-CM) with 1× Glutagro (corning)] and 10% (v/v) fetal bovine serum (FBS; Sigma, 12003C) was inactivated by heating at 95° C. for 15 min and slowly cooling to room temperature. Approximately 10,000 counts of 32P 5′-end labeled tau WT, DDPAC, WT+I17T, or DDPAC+I17T RNA were folded in 10 μL growth medium by heating at 65° C. for 5 min and slowly cooling to room temperature. Chem-CLIP probe 3 or negative control probe 4 was then added into the folded RNA in a total volume of 20 μL, and the mixtures were incubated at 37° C. for 1 h. For C-Chem-CLIP, dilutions of competing compound 2 were incubated with RNA for 30 min before adding 3. […]
The Chem-CLIP probe 3 or control probe 4 was then clicked to disulfide biotin azide (2 μL of 10 mM solution prepared in DMSO solution per sample; Click Chemistry Tools, catalog no. 1168-10). […] The radioactive signal from bound RNAs (on the beads) and unbound RNAs (in the wash buffer) was measured by using a Beckman Coulter LS6500 Liquid Scintillation Counter as Rbound and Runbound. Enrichment was calculated as the percentage of radiolabeled RNA captured by beads calculated as Rbound/(Rbound+Runbound).

Assay [2] deals with WT model RNA. Briefly: Optical melting, WT RNA. In kind it is binding. Conditions: 2 at 1.5 μM. As for the experimental part:
Optical Melting Experiments. The thermal stabilities of WT, DDPAC, and DDPAC+I17T model RNAs were analyzed by optical melting in the presence or absence of compound 1 or 2 as previously described.^18 The RNAs (2 μM) were heated to 95° C. in 1×PBS buffer and slowly cooled to room temperature. The samples were then cooled to 15° C. in the presence of compound 1 (10 μM; 0.1% (v/v) DMSO), 2 (1.5 μM; 0.1% (v/v) DMSO) or vehicle (0.1% (v/v) DMSO) and then heated to 85° C. at a rate of 1° C. per min. Absorbance as a function of temperature was measured at 260 nm using a Beckman Coulter DU800 UV/vis spectrophotometer. Melting curves were fitted with MeltWin 3.5.^31

Assay [3] concerns the target 7-deaza-guanosine WT RNA. The assay is described as follows: Fluorescent binding affinity, 7-deaza-guanosine WT RNA. The conditions noted are these: n=3, read-out: Kd (affinity for the modified RNA). As for the experimental part:
Fluorescent Binding Affinity Measurements. Binding assays were completed as previously described.^30 Briefly, the RNA of interest was folded in 1× Assay Buffer-1 (AB1: 8 mM Na2HPO4, pH 7.0, 185 mM NaCl, and 1 mM EDTA) by heating at 95° C. for 30 s followed by slowly cooling to room temperature. Bovine serum albumin (BSA) was then added to a final concentration of 40 μg/mL to afford 1× Assay Buffer-2 (AB2: 8 mM Na2HPO4, pH 7.0, 185 mM NaCl, 1 mM EDTA, and 40 μg/mL BSA). The RNA solution was serial diluted with 1×AB2. Then, compound of interest was added to the RNA solutions to a final concentration of 0.5 μM. […] Fluorescence intensity was measured using a Tecan Plate Reader (Gain: 100, Integration time: 40 μs). […] The change in fluorescence of the small molecule was calculated by its comparison to samples lacking RNA. Binding affinity was calculated using Equation 1, as previously described:^30
where I and I0 are the measured fluorescence intensity of the compound with or without RNA, respectively, Δε is the difference between the fluorescence intensity with the infinite concentration of RNA and the fluorescence intensity without RNA, [SM]0 and [RNA]0 are the concentrations of the small molecule (SM) and RNA, respectively, and Kd is the dissociation constant.

In assay [4] the test system is 4R and 3R tau protein in LAN5 cells. The assay is described as follows: 4R/3R tau protein by Western blotting in LAN5 cells. It is filed as cell-based. The conditions noted are these: LA-N-5; 2 at 1.5 μM, LAN5, 48 h; read-out: reduction of 4R/3R protein ratio. As for the experimental part: Western Blotting. LAN5 cells were seeded in 6-well plates at 0.6×10^6 cells per well, treated with compound and incubated for 48 h. After removing the growth medium, the cells were washed with 1×DPBS and harvested by trypsinization. Total protein was extracted with Mammalian Protein Extraction Reagent (M-PER, Thermo Scientific) per the manufacturer's protocol. Protein concentrations were determined using a Pierce Micro BCA Protein Assay Kit per the manufacturer's recommended protocol. Approximately 20 μg of total protein from each biological sample was separated on a sodium dodecyl sulfate (SDS)-polyacrylamide gel (5% (w/v) polyacrylamide stacking layer; 12% (w/v) polyacrylamide separating layer), followed by transferring to a polyvinylidene fluoride (PVDF; 0.45 μm) membrane. […] After three more washes with 1×TBST for 15 min each, 4R, 3R tau protein, or B-actin were detected using SuperSignal West Pico Chemiluminescent Substrate (Pierce Biotechnology).
After imaging, the membrane was stripped with 1× Stripping Buffer (200 mM glycine with 0.1% SDS, pH 2.2) for 0.5 h at room temperature, and β-actin levels were detected as described above, except using a β-actin primary antibody (Cell Signaling Technology, 4970S; 1:5000 dilution). ImageJ software was used for the quantification of the protein bands.
(Immunoblotting shows a protein as a band on a membrane.)

Take `COc1cc(N)ncc1CCCN(C)CCCn1cnc2c3ccccc3n(C)c2c1=O` [Compound 2, 3-(3-((3-(6-amino-4-methoxypyridin-3-yl)propyl)(methyl)amino)propyl)-5-methyl-3,5-dihydro-4H-pyrimido[5,4-b]indol-4-one]: the IC50 in assay [1] was roughly 2 µM. For the same compound, the “increase of Tm” value in assay [2] is 0.76±0.1 °C. In addition, in assay [3], the dissociation constant Kd came to 3.4 ± 0.9 µM. Besides, the inhibition at 1.5 µM in assay [4] was 54 ± 9%.
